The record followed here is US11572590B2, “Methods for evaluating tumor cell spheroids using 3D microfluidic cell culture device” (Dana-Farber Cancer Institute, Inc., priority 2017, dated 2023).

For test [1], the target named is T1, off-target kinases (Homo sapiens, UniProt O15530).
T1 sequence (O15530 1-556): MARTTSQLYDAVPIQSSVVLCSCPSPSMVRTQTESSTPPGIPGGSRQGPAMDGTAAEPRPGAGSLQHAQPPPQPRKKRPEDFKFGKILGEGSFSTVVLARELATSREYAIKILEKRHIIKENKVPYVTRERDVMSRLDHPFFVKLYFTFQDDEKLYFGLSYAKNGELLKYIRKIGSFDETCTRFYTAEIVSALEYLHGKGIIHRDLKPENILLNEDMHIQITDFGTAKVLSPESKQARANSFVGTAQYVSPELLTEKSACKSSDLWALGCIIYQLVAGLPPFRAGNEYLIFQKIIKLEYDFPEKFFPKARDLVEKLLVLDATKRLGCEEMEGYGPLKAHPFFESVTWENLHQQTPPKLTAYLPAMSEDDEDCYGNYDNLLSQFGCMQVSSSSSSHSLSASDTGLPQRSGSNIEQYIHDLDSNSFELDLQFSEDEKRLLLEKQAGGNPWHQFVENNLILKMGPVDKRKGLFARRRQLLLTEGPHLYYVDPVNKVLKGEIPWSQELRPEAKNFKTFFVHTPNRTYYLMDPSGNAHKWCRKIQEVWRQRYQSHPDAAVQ
Briefly: SelectScreen Kinase Profiling, single point inhibition and IC50 for off-target kinases. The class given is biochemical. To be noted: ZLYTE.

The target in test [2] is T2, off-target kinases (Homo sapiens, UniProt Q9UL54).
T2 sequence (Q9UL54 1-1235): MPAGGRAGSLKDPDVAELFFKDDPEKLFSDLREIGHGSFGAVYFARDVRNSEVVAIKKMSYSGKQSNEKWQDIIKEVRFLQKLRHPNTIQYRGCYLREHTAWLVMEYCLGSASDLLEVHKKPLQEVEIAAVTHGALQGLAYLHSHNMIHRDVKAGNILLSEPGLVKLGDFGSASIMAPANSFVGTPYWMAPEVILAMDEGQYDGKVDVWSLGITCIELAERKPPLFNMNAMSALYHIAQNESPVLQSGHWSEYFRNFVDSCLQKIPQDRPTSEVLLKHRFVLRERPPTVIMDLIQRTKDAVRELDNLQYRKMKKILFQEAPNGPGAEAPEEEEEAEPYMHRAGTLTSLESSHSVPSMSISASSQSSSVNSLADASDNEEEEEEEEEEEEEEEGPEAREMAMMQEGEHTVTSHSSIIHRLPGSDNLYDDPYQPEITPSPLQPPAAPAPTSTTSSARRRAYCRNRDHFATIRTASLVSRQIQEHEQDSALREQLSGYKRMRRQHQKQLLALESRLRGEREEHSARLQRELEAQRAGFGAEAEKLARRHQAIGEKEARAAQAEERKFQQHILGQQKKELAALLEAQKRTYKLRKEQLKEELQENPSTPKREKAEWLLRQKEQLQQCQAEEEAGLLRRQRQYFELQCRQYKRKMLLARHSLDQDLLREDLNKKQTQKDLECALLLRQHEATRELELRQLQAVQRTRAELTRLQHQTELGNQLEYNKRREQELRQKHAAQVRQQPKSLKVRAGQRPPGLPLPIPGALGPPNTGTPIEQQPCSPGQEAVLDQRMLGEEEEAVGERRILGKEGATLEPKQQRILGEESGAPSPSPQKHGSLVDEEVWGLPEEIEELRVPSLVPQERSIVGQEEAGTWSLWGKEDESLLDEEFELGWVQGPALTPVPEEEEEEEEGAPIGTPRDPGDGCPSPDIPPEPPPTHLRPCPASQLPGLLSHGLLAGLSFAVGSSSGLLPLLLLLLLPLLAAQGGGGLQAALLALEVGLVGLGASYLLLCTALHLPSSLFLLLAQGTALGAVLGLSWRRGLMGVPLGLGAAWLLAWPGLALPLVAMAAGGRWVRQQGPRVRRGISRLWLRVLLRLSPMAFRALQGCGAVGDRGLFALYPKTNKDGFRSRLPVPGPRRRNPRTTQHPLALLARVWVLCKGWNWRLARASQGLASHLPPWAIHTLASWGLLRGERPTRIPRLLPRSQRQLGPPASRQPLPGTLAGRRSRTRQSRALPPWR
The test is described as above. To be noted: TAOK2 (TAO1), ZLYTE, ATP Km app. The class given is biochemical.

Like-named read-outs stand apart in the source and are kept apart here.

Broadly, the inhibition is how much of the control response was suppressed. For the compound `N#Cc1cc(-c2ncnc(Nc3ccc(N4CCN(C5COC5)CC4)cc3)n2)ccc1OC1CCOCC1` [Compound 1, 5-(4-((4-(4-(oxetan-3-yl)piperazin-1-yl)phenyl)amino)-1,3,5-triazin-2-yl)-2-((tetrahydro-2H-pyran-4-yl)oxy)benzonitrile], the inhibition at off-target kinases [1] (PDK1, ATP 100, read-out: % Inhibition 1) is 14%; on off-target kinases [1] (PDK1, ATP 100, read-out: % Inhibition 2) it was 16%; on off-target kinases [1] (PDK1, ATP 100, read-out: % Inhibition Avg) it was 15%; at off-target kinases [1] (PDK1 Direct, ATP Km app, read-out: % Inhibition 1) it was 85%; at off-target kinases [1] (PDK1 Direct, ATP Km app, read-out: % Inhibition 2) it was 74%; at off-target kinases [1] (PDK1 Direct, ATP Km app, read-out: % Inhibition Avg) it was 79%. The inhibition was determined as 3% at off-target kinases [2] (read-out: % Inhibition 1), 6% on off-target kinases [2] (read-out: % Inhibition 2) and 5% at off-target kinases [2] (read-out: % Inhibition Avg).
